Series [1] has as its system WI-38 cell line. The series is described as follows: MTT cytotoxicity towards non-tumorigenic cells. The series is classed as cell-based, human. Conditions: for IC50: WI-38, MTT, non-tumorigenic human lung fibroblast, mean ± SD of three experiments; for S. I. WI-38/A549: selectivity index, IC50 WI-38 / IC50 A549. The protocol: The cytotoxic activity of all synthesized pyridines 5a–l were assessed against non-tumorigenic human lung fibroblast WI-38 cell line to investigate their safety, using the MTT colorimetric assay.

The subject of series [2] is HCT-116 cell line. In words: MTT anti-proliferative assay. Format: cell-based. Conditions: Homo sapiens, 48 h of incubation, mean ± SD of three experiments. The protocol: (§1) A549 (non-small cell lung cancer cell line) and HCT-116 (human colon cancer cell line), were obtained from American Type Culture Collection (Manassas, VA, USA). The cells were maintained in Dulbecco’s Modified Eagle’s Medium (DMEM) (Sigma-Aldrich, St. Louis, MO), and supplemented with 10% heat-inactivated FBS (Hyclone), 10 μg/mL of insulin (Manufacturer, Sigma, St. Louis, MO, USA), and 1% penicillin-streptomycin. MTT assay[29] was adopted to assess the in vitro antitumor activity of the newly synthesized pyridines 5a–l according to the reported procedures, using Doxorubicin as a standard treatment. Experimental conditions were tested using three replicates (three wells of the 96-well plate per experimental condition) and all experiments were carried out in triplicates. IC50 values were calculated by the use of the equation for Boltzman sigmoidal concentration–response curve using the nonlinear regression fitting models by Graph Pad, Prism version 5 (GraphPad Software Inc., La Jolla, CA).
(§2) All newly synthesized pyridines 5a–l were examined for their anti-proliferative activity towards two cancer cell lines: non-small cell lung cancer A549 cell line and colon cancer HCT-116 cell line. The MTT colorimetric assay was adopted to assess the anti-proliferative activity as described by Mosmann[29]. Doxorubicin was used as a control in this assay.
(Tetrazolium dyes change colour on reduction, which living cells bring about.)

For series [3], the system named is A549 cell line. The series is described as follows: MTT anti-proliferative assay. Format: cell-based. Conditions: Homo sapiens, 48 h of incubation, mean ± SD of three experiments. The protocol:
as §1, §2

For orientation: IC50 means the midpoint of a concentration-inhibition curve. As usually defined, the melting point is the temperature, or range, at which the solid turns liquid. `Cc1nc(-c2ccc(F)cc2)ccc1NC(=O)Nc1cc(C(F)(F)F)cc(C(F)(F)F)c1` [Compound 5b, 1-(3,5-Bis(trifluoromethyl)phenyl)-3-(6-(4-fluorophenyl)-2-methylpyridin-3-yl)urea] displayed a melting point of 235 to 237 °C. Moreover, in series [1], the IC50 came out at 151 ± 8.12 µM and the “S. I. WI-38/A549” value is on record as 6.3. Also, in series [2], the IC50 was 16 ± 1.52 µM. In addition, the IC50 in series [3] came out at 24.1 ± 1.78 µM.
The molecule `Cc1nc(-c2cccs2)ccc1NC(=O)Nc1ccc2c(c1)OCO2` [Compound 5k, 1-(Benzo[d][1, 3]dioxol-5-yl)-3-(2-methyl-6-(thiophen-2-yl)pyridin-3-yl)urea] registered a melting point of 239 to 241 °C. In series [1], the half-inhibitory concentration (IC50) was 139 ± 10.4 µM and the “S. I. WI-38/A549” value is recorded as 7.2. It took 16.4 ± 1.3 µM to reach half-maximal inhibition in series [2] (IC50). In addition, inhibition in series [3] was half-maximal at 19.2 ± 2.05 µM (IC50).
For `COc1cccc2c1C(=O)c1c(O)c3c(c(O)c1C2=O)C[C@@](O)(C(=O)CO)C[C@@H]3O[C@H]1C[C@H](N)[C@H](O)[C@H](C)O1` [Doxorubicin, reference compound], the IC50 stood at 3.1 ± 0.22 µM in series [2] and 2.93 ± 0.28 µM in series [3].
